Consider 12 compounds from patent US10179790B2 (THOMAS HELLEDAYS STIFTELSE FOR MEDICINSK FORSKNING, priority 2014, dated 2019).

One assay has as its target MTH1 (Homo sapiens, UniProt P36639). Description: MTH1 enzymatic assay and IC50 value determination (malachite green, 96- and 384-well format). The assay is classed as biochemical. As to conditions: hydrolysis of dGTP (100 μM), MTH1 6 nM, pyrophosphatase-coupled malachite green, 15 minutes at 22° C. In a few lines:
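MTH1 (6 nM) hydrolysed dGTP (100 μM) for 15 min at 22 °C in Tris-acetate buffer with Mg2+, DTT, Tween 20 and excess pyrophosphatase, 1% DMSO. Pi detected with malachite green at 630 nm. IC50 from nonlinear 4-parameter fit of 11–12-point dilution series.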

The test system of another assay is cancer cell. The assay is described as follows: Cell viability assay (resazurin). As to conditions: 72 h; 3 days with compound, resazurin fluorescence; cell line not named. It is filed as cell-based. In a few lines:
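Cells in DMEM GlutaMAX or line-appropriate medium are exposed to compound for 3 days at 37 °C, 5% CO2. Viability is read as resazurin fluorescence (Ex544/Em590) after 2 h incubation. In the 384-well format, cells are seeded onto 11 pre-dispensed concentrations (final DMSO <1%) and read after 3 h resazurin.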
(In general: Alamar Blue is a resazurin reagent that responds to reducing activity.)

As to `Cc1c(Cl)cccc1-c1cc(NCCc2cccc(NC(=O)NC(C)(C)C)c2)nc(N)n1` [Example 149, 1-[3-[2-[[2-amino-6-(3-chloro-2-methyl-phenyl)pyrimidin-4-yl]amino]ethyl]phenyl]-3-tert-butyl-urea], the IC50 – broadly, the concentration at which inhibition is half-maximal – was < 0.2 µM at MTH1 and < 0.5 µM in the assay on cancer cell.

`Cc1c(Cl)cccc1-c1cc(NCCCNc2ccc(C(N)=O)cn2)nc(N)n1` [Example 167, 6-[3-[[2-amino-6-(3-chloro-2-methyl-phenyl)pyrimidin-4-yl]amino]propylamino]pyridine-3-carboxamide]: the IC50 against MTH1 is < 0.2 µM; with cancer cell it was < 0.5 µM.

`Cc1c(Cl)cccc1-c1cc(NCC(C)(C)CNc2ccc(S(N)(=O)=O)cc2)nc(N)n1` [Example 164, 4-[[3-[[2-amino-6-(3-chloro-2-methyl-phenyl)pyrimidin-4-yl]amino]-2,2-dimethyl-propyl]amino]benzenesulfonamide]: the IC50 on MTH1 was < 0.2 µM; in the assay on cancer cell, < 0.5 µM.

For `Cc1c(Cl)cccc1-c1cc(NCCNc2ccc([S+](C)[O-])cc2)nc(N)n1` (stereo not drawn) [Example 161, 6-(3-chloro-2-methyl-phenyl)-N4-[2-(4-methylsulfinylanilino)ethyl]pyrimidine-2,4-diamine], the IC50 is < 0.2 µM at MTH1 and < 0.5 µM with cancer cell.

For the compound `Nc1nc(NCCc2cccc(S(N)(=O)=O)c2)cc(-c2cccc(Cl)c2Cl)n1` [Example 54, 3-(2-{[2-amino-6-(2,3-dichlorophenyl)pyrimidin-4-yl]amino}ethyl)benzene-1-sulfonamide], the IC50 on MTH1 is < 0.2 µM; in the assay with cancer cell, < 0.5 µM.

For `Cc1c(Cl)cccc1-c1cc(NCCCNc2cccc(S(C)(=O)=O)c2)nc(N)n1` [Example 110, 6-(3-chloro-2-methyl-phenyl)-N4-[3-(3-methylsulfonylanilino)propyl]pyrimidine-2,4-diamine], the values for the IC50 against MTH1 and with cancer cell were < 0.2 µM and < 0.5 µM, respectively.

For the compound `Cc1c(Cl)cccc1-c1cc(NCCCNc2nccc(C(N)=O)n2)nc(N)n1` [Example 168, 2-[3-[[2-amino-6-(3-chloro-2-methyl-phenyl)pyrimidin-4-yl]amino]propylamino]pyrimidine-4-carboxamide], the half-maximal inhibitory concentration (IC50) was < 0.2 µM at MTH1 and < 0.5 µM in the assay on cancer cell.

Consider `Cc1cccc(-c2cc(NCCOc3ccc(C(N)=O)cn3)nc(N)n2)c1C` [Example 26, 6-(2-{[2-amino-6-(2,3-dimethylphenyl)pyrimidin-4-yl]amino}ethoxy)pyridine-3-carboxamide], for which the IC50 was < 0.2 µM on MTH1 and < 0.5 µM in the assay on cancer cell.

Consider `Cc1c(Cl)cccc1-c1cc(NCCc2ccc(C(=O)OCCO)cc2)nc(N)n1` [Example 185, 2-hydroxyethyl 4-[2-[[2-amino-6-(3-chloro-2-methyl-phenyl)pyrimidin-4-yl]amino]ethyl]benzoate], for which the figures for the IC50 at MTH1 and with cancer cell were < 0.2 µM and < 0.5 µM, respectively.

With `Cc1c(Cl)cccc1-c1cc(NCCNc2ccc3c(c2)OCC(=O)N3)nc(N)n1` [Example 91, 7-[2-[[2-amino-6-(3-chloro-2-methyl-phenyl)pyrimidin-4-yl]amino]ethylamino]-4H-1,4-benzoxazin-3-one], the IC50 against MTH1 was < 0.2 µM; in the assay with cancer cell, < 0.5 µM.

As to `Cc1c(Cl)cccc1-c1cc(NCCc2ccc([S+](C)[O-])cc2)nc(N)n1` (stereo not drawn) [Example 196, 6-(3-chloro-2-methylphenyl)-N4-[2-(4-methanesulfinylphenyl)ethyl]pyrimidine-2,4-diamine], the IC50 is < 0.2 µM against MTH1 and < 0.5 µM with cancer cell.

For the compound `Cc1c(Cl)cccc1-c1cc(NCCc2ccc(NC#N)cc2)nc(N)n1` [Example 124, [4-[2-[[2-amino-6-(3-chloro-2-methyl-phenyl)pyrimidin-4-yl]amino]ethyl]phenyl]cyanamide], the concentration for half-maximal inhibition (IC50) on MTH1 was < 0.2 µM; with cancer cell it was < 0.5 µM.
